Publication PMC6220877, “Modified Peptide Inhibitors of the Keap1–Nrf2 Protein–Protein Interaction Incorporating Unnatural Amino Acids” (Chembiochem, 2018)
Several values for one entry are separate records, joined by “and”; a condition that tells them apart may be missing. Equal values may be shown once. Marks after values point to notes of the source that are not given here. Where a SMILES comes first, the peptide text is derived from it. [ ]: non-standard residue; d: D form. The star is where a group is joined. 2Thi = N[C@@H](Cc1cccs1)C(=O)O; Cha = N[C@@H](CC1CCCCC1)C(=O)O; X1 = CC(C)C[C@H](N*)c1nnn[nH]1; Tle = CC(C)(C)[C@H](N)C(=O)O; Pip = O=C(O)[C@@H]1CCCCN1; Thz = O=C(O)[C@@H]1CSCN1; NHIsopentyl = CC(C)CCN*; NHBn = c1ccc(CN*)cc1

What was measured:
Assay type in all cases: binding
[1] = biological target: T1, Keap1 Kelch protein (Homo sapiens, UniProt Q14145); experiment: Differential scanning fluorimetry (DSF) thermal shift screen; settings: 10% DMSO, DPBS pH 7.4, 30 min at RT, 25-95 °C at 1 °C/min, triplicate, Keap1 Kelch Tm 47.0±0.1 °C; for DSF ΔTm: 10 μM peptide; for ΔTm at 10 µM: pH 7.4, 10 μM peptide
T1 construct: made in house; host or cells: E. coli BL21 CodonPlus
T1 sequence (Q14145 321-609 limits assumed): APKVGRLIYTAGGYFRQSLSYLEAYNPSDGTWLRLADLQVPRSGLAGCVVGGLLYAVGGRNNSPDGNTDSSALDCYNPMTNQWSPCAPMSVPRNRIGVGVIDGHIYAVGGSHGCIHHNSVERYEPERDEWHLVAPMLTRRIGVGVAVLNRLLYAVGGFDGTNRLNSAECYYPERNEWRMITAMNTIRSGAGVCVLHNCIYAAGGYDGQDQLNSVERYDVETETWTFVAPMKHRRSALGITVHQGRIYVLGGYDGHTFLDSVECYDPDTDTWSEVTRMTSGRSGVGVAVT
Description: DPBS at pH 7.4 was added to the wells of a MicroAmp® Optical 96-well reaction plate
containing the peptide inhibitor (10 µM, 10% final DMSO concentration, 40 µL final volume).
The plate was sealed using an optical adhesive cover and covered with aluminium foil to
protect the dye from light. The plate was then transferred to a plate centrifuge and spun down
briefly (200 g, 1 min, RT) to remove any bubbles and collect the solution at the bottom of the
wells. Following a 30 min incubation at RT, the plate was placed into a 7500 Real time PCR
machine and subjected to a standard protein melting protocol8 using the 7500 Software
1°C/min. All measurements were run in triplicate. The raw data were exported to MS Excel
and analysis was performed using a custom script provided by the Structural Genomics
Consortium Oxford.[8] The temperature range over which the protein unfolding occurred was
selected and the maximum and minimum (at temperatures below the maximum intensity)
fluorescence intensities within this range were determined. The processed data were fitted to
the Boltzmann equation by linear regression analysis using the Origin Pro software.

[2] = biological target: T2, Keap1 Kelch domain (Homo sapiens, UniProt Q14145); experiment: Fluorescence polarisation (FP) competition assay; settings: for Percentage inhibition in FP assay: 100 μM concentration of inhibitor; for IC50: FP assay, Keap1 Kelch domain; for Ki: estimated from FP IC50 by the method described by Kenakin (ref 14), read-out: FP calcd Ki
T2 construct: made in house; host or cells: E. coli BL21 CodonPlus
T2 sequence (Q14145 321-609 limits assumed): as above

[3] = biological target: T2, Keap1 Kelch domain; experiment: Isothermal titration calorimetry (ITC); settings: 25 °C, 50 μM protein, 500 μM peptide, 25 mM HEPES pH 7.4, 200 mM NaCl, 5% DMSO, mean of n≥2
Description: Isothermal titration calorimetry experiments
The protein was initially dialysed overnight against buffer containing 25 mM HEPES, pH 7.4
and 200 mM NaCl. The protein was diluted to a concentration of 50 μM prior to ITC. Inhibitors
were diluted to an appropriate concentration in dialysis buffer so that the final solution
contained no more than 5% DMSO. To maintain a similar buffer composition for titrations, 5%
DMSO was added to the protein solution. All peptides in this study were used at a
concentration of 500 μM. There were no detectable solubility issues at these concentrations
of the peptides in the dialysis buffer. ITC experiments were performed with a MicroCal PEAQ-
ITC instrument (Malvern Instruments, UK).
speed of around 750 rpm. In total 30 injections were performed for one protein inhibitor
experiment with the first injection of 0.3 μL followed by 29 injections of 1.3 μL and a gap of
120 s between each injection. Data analyses were performed after subtraction of the heats of
dilution for each experiment. The thermodynamic parameters N (stoichiometry), Kd
(dissociation constant/binding affinity), ∆S (entropy change) and ∆H (enthalpy change) were
obtained by using the single-site-binding model of the PEAQ-ITC analysis software (Malvern
Instruments, UK). For each experiment, at least two titrations were performed. Titration data
were analysed independently, and the obtained values were averaged.

Row | Compound | DSF ΔTm [1] | Percentage inhibition in FP assay [2] | ΔTm at 10 µM [1] [°C] | IC50 [2] [nM] | Ki [2] [nM] | ITC TΔS [3] [kcal/mol] | ITC ΔG [3] [kcal/mol] | ITC ΔH [3] [kcal/mol] | Kd [3] [nM]
1 | Ac‐Asp‐Pro‐Glu‐hPhe‐Gly‐Glu‐Leu‐OH [compound 12] | ≈ 0.5 °C and 0.8±0.2 °C | 20 %^[c] | – | – | – | – | – | – | –
2 | Ac‐Asp‐Pro‐Glu‐Bap‐Gly‐Glu‐Leu‐OH [compound 13] | ≈ 0.5 °C and 0.5±0.1 °C | 27 %^[c] | – | – | – | – | – | – | –
3 | CC(=O)N[C@@H](CC(=O)O)C(=O)N1CCC[C@H]1C(=O)N[C@@H](CCC(=O)O)C(=O)N[C@H](C(=O)NCC(=O)N[C@@H](CCC(=O)O)C(=O)N[C@@H](Cc1cccs1)C(=O)O)[C@@H](C)O [compound 10, Ac‐Asp‐Pro‐Glu‐Thr‐Gly‐Glu‐Thi‐OH] (Ac-DPETGE[2Thi]-OH) | – | – | 5.3 ± 0.2 | 578 ± 25 | 243 | – | – | – | –
4 | CC(=O)N[C@@H](CC(=O)O)C(=O)N1CCC[C@H]1C(=O)N[C@@H](CCC(=O)O)C(=O)N[C@H](C(=O)NCC(=O)N[C@@H](CCC(=O)O)C(=O)N[C@@H](CC(C)C)C(=O)NCc1ccccc1)[C@@H](C)O [compound 7, Ac‐Asp‐Pro‐Glu‐Thr‐Gly‐Glu‐Leu‐NH‐Bn] (Ac-DPETGEL-NHBn) | – | – | ~2 | 888 ± 28 | 373 | – | – | – | –
5 | CC(=O)N[C@@H](CC(=O)O)C(=O)N1CCC[C@H]1C(=O)N[C@@H](CCC(=O)O)C(=O)N[C@H](C(=O)NCC(=O)N[C@@H](CCC(=O)O)C(=O)N[C@@H](CC(C)C)C(=O)NCCC(C)C)[C@@H](C)O [compound 6, Ac‐Asp‐Pro‐Glu‐Thr‐Gly‐Glu‐Leu‐NH‐isopentyl] (Ac-DPETGEL-NHIsopentyl) | – | – | ~2 | 745 ± 126 | 313 | – | – | – | –
6 | CC(=O)N[C@@H](CC(=O)O)C(=O)N1CCCC[C@H]1C(=O)N[C@@H](CCC(=O)O)C(=O)N[C@H](C(=O)NCC(=O)N[C@@H](CCC(=O)O)C(=O)N[C@@H](CC(C)C)C(=O)O)[C@@H](C)O [compound 16, Ac‐Asp‐Pip‐Glu‐Thr‐Gly‐Glu‐Leu‐OH] (Ac-D[Pip]ETGEL-OH) | – | – | ~2 | 1060 ± 280 | 447 | – | – | – | –
7 | CC(=O)N[C@@H](CC(=O)O)C(=O)N1CCC[C@H]1C(=O)N[C@@H](CCC(=O)O)C(=O)N[C@H](C(=O)NCC(=O)N[C@@H](CCC(=O)O)C(=O)N[C@@H](CC(C)C)c1nnn[nH]1)[C@@H](C)O [compound 8, Ac‐Asp‐Pro‐Glu‐Thr‐Gly‐Glu‐Leu‐TET] (Ac-DPETGE-X1) | – | – | 6.2 ± 0.3 | 374 ± 31 | 157 | – | – | – | –
8 | Ac-DPENGEL-OH [compound 14, Ac‐Asp‐Pro‐Glu‐Asn‐Gly‐Glu‐Leu‐OH] | – | – | ~0.5 | 3040 ± 310 | 1280 | – | – | – | –

Next, values leading:

Row | DSF ΔTm [1] | Percentage inhibition in FP assay [2] | ΔTm at 10 µM [1] [°C] | IC50 [2] [nM] | Ki [2] [nM] | ITC TΔS [3] [kcal/mol] | ITC ΔG [3] [kcal/mol] | ITC ΔH [3] [kcal/mol] | Kd [3] [nM] | Compound
9 | – | – | 5.8 ± 0.9 | 85 ± 14 | 36 | -0.29 ± 0.001 | -9.57 ± 0.21 | -9.83 ± 0.22 | 75 ± 6 | CC(=O)N[C@@H](CC(=O)O)C(=O)N1CCC[C@H]1C(=O)N[C@@H](CCC(=O)O)C(=O)N[C@H](C(=O)NCC(=O)N[C@@H](CCC(=O)O)C(=O)N[C@@H](CC1CCCCC1)C(=O)O)[C@@H](C)O [compound 11, Ac‐Asp‐Pro‐Glu‐Thr‐Gly‐Glu‐Cha‐OH] (Ac-DPETGE[Cha]-OH)
10 | – | – | 5.8 ± 0.6 | 235 ± 16 | 99 | -1.69 ± 0.34 | -8.59 ± 0.12 | -10.25 ± 0.21 | 580 ± 90 | CC(=O)N[C@@H](CC(=O)O)C(=O)N1CCC[C@H]1C(=O)N[C@@H](CCC(=O)O)C(=O)N[C@H](C(=O)NCC(=O)N[C@@H](CCC(=O)O)C(=O)N[C@H](C(=O)O)C(C)(C)C)[C@@H](C)O [compound 9, Ac‐Asp‐Pro‐Glu‐Thr‐Gly‐Glu‐Tle‐OH] (Ac-DPETGE[Tle]-OH)
11 | – | – | 8.3 ± 0.3 | 89 ± 6 | 37 | -3.84 ± 0.31 | -8.95 ± 0.17 | -12.83 ± 0.33 | 310 ± 10 | CC(=O)N[C@@H](CC(=O)O)C(=O)N1CSC[C@H]1C(=O)N[C@@H](CCC(=O)O)C(=O)N[C@H](C(=O)NCC(=O)N[C@@H](CCC(=O)O)C(=O)N[C@@H](CC(C)C)C(=O)O)[C@@H](C)O [compound 15, Ac‐Asp‐Thp‐Glu‐Thr‐Gly‐Glu‐Leu‐OH] (Ac-D[Thz]ETGEL-OH)
